Data from US12357636B2 (Urovant Sciences GmbH, priority 2018, dated 2025).

Columns and labels:
[1] = biological target: T1, β1-AR (Homo sapiens, UniProt P08588); assay: competition binding assay, membranes with recombinant β1-AR
T1 construct: expressed in transfected cells; membranes prepared from them

[2] = biological target: β2-AR (Homo sapiens, UniProt P07550); assay: competition binding assay, membranes with recombinant β2-AR
[3] = human plasma protein binding; format: in vitro ADME
[4] = single rising oral dose Phase 1 pharmacokinetics; format: in vivo, human
Method: The steady state AUC geometric mean accumulation ratios were ˜2 in young male subjects and ˜2.8 in elderly subjects (male and female).
All subjects were healthy adults. […] Systemic exposures were greater than dose proportional up to 600 mg.
Although exposures were similar in middle-aged males when compared to young males, plasma concentrations were higher in elderly compared to middle-aged and young subjects. […] Furthermore, the steady state AUC geometric mean accumulation ratios were ˜2 in young males and ˜2.8 in the elderly.

[5] = multiple rising dose Phase 1 pharmacokinetics; format: in vivo, human
Description: Although exposures were similar in middle-aged males when compared to young males, plasma concentrations were higher in elderly compared to middle-aged and young subjects.

[6] = effect of food on oral absorption; format: in vivo, human
[7] = drug interaction: effect of ketoconazole, diltiazem or tolterodine on vibegron PK; format: in vivo, human
Description: However, these interactions are not expected to be clinically significant.

[8] = biological target: CYP3A4 (Homo sapiens, UniProt P08684); assay: in vitro CYP metabolism; format: in vitro ADME
Sequence of CYP3A4 (P08684 whole entry): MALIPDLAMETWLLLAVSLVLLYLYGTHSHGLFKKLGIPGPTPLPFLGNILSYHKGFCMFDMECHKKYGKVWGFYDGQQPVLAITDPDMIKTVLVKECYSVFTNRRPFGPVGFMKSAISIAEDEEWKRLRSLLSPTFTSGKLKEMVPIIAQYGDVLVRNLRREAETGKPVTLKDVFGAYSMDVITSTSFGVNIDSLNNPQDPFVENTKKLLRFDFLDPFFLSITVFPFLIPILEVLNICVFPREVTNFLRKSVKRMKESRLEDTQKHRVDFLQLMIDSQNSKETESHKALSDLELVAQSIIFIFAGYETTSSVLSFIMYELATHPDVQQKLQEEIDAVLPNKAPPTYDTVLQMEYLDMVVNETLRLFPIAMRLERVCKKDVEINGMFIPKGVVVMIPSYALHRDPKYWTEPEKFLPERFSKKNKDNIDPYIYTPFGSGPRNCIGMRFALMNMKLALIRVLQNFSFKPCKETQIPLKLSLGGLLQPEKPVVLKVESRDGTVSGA

[9] = test system: men and women with overactive bladder; assay: Phase 3 study vibegron 75 mg vs placebo and tolterodine, 12 weeks, OAB: efficacy (Tables 21-25); format: in vivo, human
Method: Enrollment of patients included individuals with OAB Wet (those with UUI, the involuntary loss of urine accompanied by urgency) and OAB Dry (those without UUI). A total of 1,518 patients were randomized across 215 study sites into one of three groups for a 12-week treatment period.
The study consisted of a Screening Period (1 to 5 weeks), a single-blind Run-in Period (2 weeks), a randomized double-blind Treatment Period (12 weeks), and a Follow-up Period (4 weeks).
Tolterodine ER 4 mg was the active control. […] Between the Baseline and Week 12 Visits, patients had study assessments at Week 4 and Week 8.
For the analysis of the co-primary endpoints (change from baseline in average number of daily micturitions at Week 12 and change from baseline in average number of daily urge urinary incontinence episodes at Week 12, and placebo adjustment of each), a mixed model for repeated measure (MMRM) with restricted maximum likelihood estimation was used. This model corrects for dropout and accounts for the fact that measurements taken on the same patient over time tend to be correlated by using all available information on patients within the same covariate set to derive an estimate of the treatment effect for a dropout-free population. The analysis model for each efficacy endpoint includes terms for treatment, visit, OAB Type (Wet vs Dry), Sex (Female vs Male), Region (US vs Rest of World), baseline score, and interaction of visit by treatment.
Primary inferences were drawn from treatment differences for the changes from baseline derived from the MMRM models at Week 12. As part of secondary objectives, the treatment differences for each post baseline visit were also derived using the same MMRM model.
An unstructured covariance matrix was used to model the correlation among repeated measurements. The Kenward-Roger adjustment was used with restricted (or residual) maximum likelihood (REML) to make statistical inference. If the unstructured covariance model fails to converge with the default Newton-Raphson algorithm, the Fisher scoring algorithm or other appropriate methods can be used to provide initial values of the covariance parameters. In the rare event that none of the above methods yield convergence, a structured covariance would be used to model the correlation among repeated measurements.
The change from baseline efficacy endpoints was analyzed using the same MMRM model described for co-primary endpoints.
Analysis of the efficacy endpoints of proportion of patients with at least 75% reduction in the average number of daily UUI episodes at Week 12 and proportion of patients with 50% reduction in the average number of daily urgency episodes at Week 12 was analyzed using the Cochran-Mantel-Haenszel risk difference estimate. Missing Week 12 data was analyzed using multiple imputation. The estimated difference in the proportion of responders and 95% confidence interval for the difference was calculated using the Cochran-Mantel-Haenszel risk difference estimate stratified by OAB Type (Wet vs Dry) and Sex (Female vs Male), with weights proposed by Greenland and Robins.
The same statistical methods that were used to analyze the co-primary and secondary efficacy endpoints were used for the exploratory analyses. Exploratory responder analyses were analyzed using the same Cochran-Mantel-Haenszel model as described above for secondary endpoints.

[10] = test system: men and women with overactive bladder; assay: Phase 3 study vibegron 75 mg: safety and tolerability; format: in vivo, human; details: 75 mg QD, 12 weeks
Method: Safety analyses were conducted using the SAF and summarized by treatment group as treated. The treatment-emergent period is defined as the period of time from the first dose date of the double blinded Study Treatment through 28 days after the last dose of Study Treatment, or the date of initiation of another investigational agent or surgical intervention or rollover to the extension study, whichever occurs first. Safety was assessed through summaries of adverse events, the frequency of treatment discontinuations due to adverse events, and clinical laboratory evaluations.

[11] = test system: healthy subjects; details: in vivo
[12] = test system: healthy subjects
Description: Safety data from 16 Phase 1 studies, which include 15 completed Phase 1 studies and 1 study that was terminated early (this study was terminated for reasons unrelated to efficacy or safety) was collected.

[13] = human, in vivo
[14] = 150 mg multiple doses, Day 14, middle-aged females
[15] = single 50 mg, Japanese young males
[16] = single 50 mg, non-Japanese young males
[17] = multiple doses of 240 mg or 180 mg diltiazem, vibegron 100 mg

T1 sequence (P08588 whole entry): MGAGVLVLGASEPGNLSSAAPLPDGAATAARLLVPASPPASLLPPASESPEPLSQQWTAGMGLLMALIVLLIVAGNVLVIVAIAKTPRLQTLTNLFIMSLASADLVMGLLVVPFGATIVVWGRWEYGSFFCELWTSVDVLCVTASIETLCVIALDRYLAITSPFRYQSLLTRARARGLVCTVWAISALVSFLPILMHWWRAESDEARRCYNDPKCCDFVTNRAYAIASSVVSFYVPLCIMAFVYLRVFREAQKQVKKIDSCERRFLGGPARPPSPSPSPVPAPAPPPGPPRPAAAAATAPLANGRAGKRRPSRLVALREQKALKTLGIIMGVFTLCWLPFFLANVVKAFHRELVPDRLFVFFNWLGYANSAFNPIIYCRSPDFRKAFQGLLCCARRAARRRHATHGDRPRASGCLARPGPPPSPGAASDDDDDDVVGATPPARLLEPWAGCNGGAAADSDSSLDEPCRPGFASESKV
Sequence of β2-AR (P07550 whole entry): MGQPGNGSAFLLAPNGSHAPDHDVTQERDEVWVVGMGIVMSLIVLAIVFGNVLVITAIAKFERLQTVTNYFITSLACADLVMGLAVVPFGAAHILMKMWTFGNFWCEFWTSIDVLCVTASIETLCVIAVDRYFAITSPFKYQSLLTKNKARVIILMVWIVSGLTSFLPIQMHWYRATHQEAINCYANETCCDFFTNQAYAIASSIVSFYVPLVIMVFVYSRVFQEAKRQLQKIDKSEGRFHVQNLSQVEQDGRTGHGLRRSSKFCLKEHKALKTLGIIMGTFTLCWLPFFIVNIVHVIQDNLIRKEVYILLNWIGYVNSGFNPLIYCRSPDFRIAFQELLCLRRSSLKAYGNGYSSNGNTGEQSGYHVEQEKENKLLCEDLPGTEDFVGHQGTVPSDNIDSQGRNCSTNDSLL

O=C(Nc1ccc(C[C@@H]2CC[C@H]([C@H](O)c3ccccc3)N2)cc1)[C@@H]1CCc2nccc(=O)n21 [Vibegron, (6S)—N-[4-[[(2S,5R)-5-[(R)-hydroxy(phenyl)methyl]pyrrolidin-2-yl]methyl]phenyl]-4-oxo-7,8-dihydro-6H-pyrrolo[1,2-a]pyrimidine-6-carboxamide]
binding to β1-AR [1]: does not bind
binding to β2-AR [2]: does not bind
bound to human plasma proteins [3]: approximately 49%
exposure increase, young Japanese vs non-Japanese males ([4]; single dose): < 2 fold
dose proportionality of mean Cmax and AUC ([4]; up to 400 mg): greater than dose-proportional
steady state Cmax, elderly compared to young males ([5]; 100 mg QD): ~1.3 fold
fe0-24hr, ss ([5]; 100 mg, elderly subjects): ~17%
AUC0-24 ([5]; 200 mg multiple dose, day 14, healthy young males): 3200 ± 1120 ng·h/mL
fe0-24hr, ss ([5]; 100 and 150 mg, young males): ~14%
steady state exposure (AUC0-24) higher in elderly Japanese than elderly non-Japanese ([5]; Day 14): 35%
Cmax increase in elderly Japanese compared to elderly non-Japanese ([5]; in vivo): 82%
higher Cmax in elderly and females than healthy young males ([5]; in vivo): 50-70%
steady state AUC, middle-aged females compared to middle-aged males ([5]; in vivo): ~1.5 fold
steady state exposures higher in Japanese than non-Japanese young males ([5]; in vivo): ~30%
time to steady state ([5]; once daily dosing): ≤ 7 days
exposure (AUC) higher in females compared with males ([5]; regardless of age): 50%
mean Cmax with food compared to fasted state ([6]; 150 mg multiple doses, Day 1): 59%
mean AUC0-24 with food compared to fasted state ([6]; 150 mg multiple doses, Day 1, middle-aged and elderly females): ~42%
mean AUC0-24 with food compared to fasted state ([6]; 150 mg multiple doses, Day 14): ~20%
mean Cmax with food compared to fasted state ([6]; 150 mg multiple doses, Day 14): 43%
reduction in mean AUC0-24hr with food vs fasted [6, 14]: 20%
reduction in mean Cmax with food vs fasted [6, 14]: 47%
Tmax ([6]; male, human, plasma, oral, single 50 mg, non-Japanese young males, read-out: delay in Tmax with high-fat meal): ~1 h
reduction in AUC0-inf with standard Japanese breakfast [6, 15]: 37%
reduction in Cmax with standard Japanese breakfast [6, 15]: 52%
reduction in AUC0-inf with high-fat meal vs fasted [6, 16]: 46%
reduction in Cmax with high-fat meal vs fasted [6, 16]: 67%
effect of tolterodine ER 4 mg on the pharmacokinetics of vibegron ([7]; in vivo): no effect
GM AUC0-inf increase with diltiazem [7, 17]: 63%
GM Cmax increase with diltiazem [7, 17]: 68%
predominant CYP responsible for in vitro metabolism [8]: CYP3A4
total incontinence episodes vs baseline ([9]; 75 mg QD, 12 weeks): reduced by half
Micturitions: Week 12 CFB Mean ([9]; Males with BPH, descriptive statistics): −1.50
OAB-q Coping Score, Week 12 LS Mean Change from Baseline (Placebo-Adjusted) ([9]; Week 12, key secondary endpoint, once-daily vibegron 75 mg or tolterodine): 3.6
tolerability [10]: favorable
thorough QT study finding [11]: no clinically meaningful effect on QTc or blood pressure
treatment-emergent SAEs or deaths ([12]; Phase 1 program): no treatment-emergent serious adverse events (SAEs) or deaths reported
tolerability across the Phase 1 program ([12]; single 2 to 600 mg, multiple 25 to 400 mg up to 28 days): generally well tolerated
dose recovered in feces [13]: approximately 59%
dose recovered in urine [13]: ~20%
